From paper PMC4456249 (Structure (London, England : 1993), 2015)

Columns and labels:
CCL5 = settings: ref Mizumoto et al., 2013; cited from earlier work
NMR = target: the molecule itself; assay: NMR

Row | Molecule | Affinity for CCL5 (CCL5) | ratio of dimer-to-monomer (30 uM, 40 °C, without CS444) (NMR) | stoichiometry N (NMR)
1 | chondroitin sulfate [CS] | submicromolar affinities | – | –
2 | dermatan sulfate [DS] | submicromolar affinities | – | –
3 | E66S CCL5 (natural protein) MSPYSSDTTPCCFAYIARPLPRAHIKEYFYTSGKCSNPAVVFVTRKNRQVCANPEKKWVREYINSLSMS | – | ~1 | 2
